Target: T1, Androgen Receptor protein in human LnCaP cells (Homo sapiens, UniProt P10275, T878A)
T1 construct: the AR gene was modified, using CRISPR/Cas9 editing, so the expressed AR protein included an 11 amino acid HiBiT tag; endogenous in cells; host or cells: clonal LnCaP derived cell line, endogenous AR gene edited by CRISPR/Cas9
T1 sequence (P10275 1-920 T878A): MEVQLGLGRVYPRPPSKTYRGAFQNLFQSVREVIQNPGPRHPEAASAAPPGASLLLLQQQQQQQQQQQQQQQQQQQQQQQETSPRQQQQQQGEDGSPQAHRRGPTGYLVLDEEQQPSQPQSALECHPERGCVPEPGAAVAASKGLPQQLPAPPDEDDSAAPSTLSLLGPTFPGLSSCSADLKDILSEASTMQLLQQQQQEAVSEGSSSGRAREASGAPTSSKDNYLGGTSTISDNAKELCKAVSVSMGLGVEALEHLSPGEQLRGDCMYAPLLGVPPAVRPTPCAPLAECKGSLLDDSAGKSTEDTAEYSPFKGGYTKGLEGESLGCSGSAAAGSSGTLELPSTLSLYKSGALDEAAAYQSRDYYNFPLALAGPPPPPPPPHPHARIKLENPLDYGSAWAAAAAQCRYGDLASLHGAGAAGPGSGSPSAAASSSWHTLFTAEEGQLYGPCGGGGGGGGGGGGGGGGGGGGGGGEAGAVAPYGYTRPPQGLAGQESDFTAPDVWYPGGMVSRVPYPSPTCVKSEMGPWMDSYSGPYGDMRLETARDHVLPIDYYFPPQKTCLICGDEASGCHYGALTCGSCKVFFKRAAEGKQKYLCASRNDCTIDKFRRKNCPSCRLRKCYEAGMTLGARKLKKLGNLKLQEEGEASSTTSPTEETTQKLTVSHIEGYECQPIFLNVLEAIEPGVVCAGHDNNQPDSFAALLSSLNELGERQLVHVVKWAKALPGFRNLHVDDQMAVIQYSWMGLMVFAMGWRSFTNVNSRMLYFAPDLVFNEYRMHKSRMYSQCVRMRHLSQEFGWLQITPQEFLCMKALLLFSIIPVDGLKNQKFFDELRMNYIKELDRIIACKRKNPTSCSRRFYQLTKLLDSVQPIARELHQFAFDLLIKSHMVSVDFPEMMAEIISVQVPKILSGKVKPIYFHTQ
Test: Androgen Receptor Degradation Assay (Nano-Glo HiBiT, LnCaP cells)
Type: cell-based
Settings: 18 h, HiBiT-tagged AR LnCaP cells, 18 h incubation, fitted curve asymptote maximum of degradation, read-out: mean asymptote max
Description: Degradation of Androgen Receptor protein in human LnCaP cells treated with PROTACs was quantified using the Nano-Glo® HiBiT Lytic Detection System (Promega) in 384 well assay plate format. A clonal LnCaP derived cell line was first established in which the AR gene was modified, using CRISPR/Cas9 editing, so the expressed AR protein included an 11 amino acid HiBiT tag at its amino-terminus. 10 mM DMSO stock solutions of PROTACs were prepared and diluted across an 11 concentration, 3 fold increment range, and 25 nL dispensed into a white opaque bottomed 384 well assay plate (Thermofisher) using an acoustic ECHO dispenser (Labcyte). Cells were grown in cell culture medium (RPMI 1640 supplemented with 15% FBS, penicillin 50U/mL and streptomycin 50 ug/mL (Thermofisher)). For the assay, cells were detached from flask and resuspended with assay medium (FluoroBrite™ DMEM supplemented with 10% heat inactivated FBS, penicillin 50U/mL and streptomycin 50 ug/mL (Thermofisher)). The cell suspension was centrifuged at 400 g for 5 min and the pellet resuspended in assay medium. 25 μL of cell suspension containing 10,000 cells was dispensed into each well of the assay plate containing a serial dilution of test compounds, which was then incubated for 18 h at 37° C./5% CO2. Control wells were included on each assay plate, with assay medium without cells being the no AR remaining 100% effect control, and cells treated with DMSO vehicle only, without PROTAC, the 0% effect control. 25 μL of Nano-Glo® HiBiT lysis buffer supplemented with LgBiT protein and Nano-Glo® substrate (Promega) was added to each well and the plate shaken at 500 rpm for 10 min at room temperature. The intensity of luminescence was measured using a PHERAstar microplate reader (BMG Labtech) and the % AR protein remaining in each well calculated by normalising the raw luminescence value to the above control wells. Parameters corresponding to the potency and efficacy estimates of the PROTACs were obtained from these normalised luminescence values using software (IDBS ActivityBase). These included the DC50 (concentration at which 50% of protein was degraded in M) and the Dmax (maximal degradation, in %) estimates. Two versions of the DC50, called relative DC50 and absolute DC50, were generated. These are the inflection point of a fitted 4 parameter sigmoidal response curve and the interpolated concentration of PROTAC corresponding to 50% of the protein being degraded, respectively. The corresponding pDC50 is reported as −log10(relative […]). The Dmax parameter was the maximum experimentally observed degradation and the asymptote max parameter the fitted response curve asymptote maximum.

Dmax, ≥ 50%:
CC1(C)[C@H](NC(=O)c2ccc(N3CCC(CN4CC[C@H](n5ncc6c(N7CCC(=O)NC7=O)cccc65)C4)CC3)c(F)c2)C(C)(C)[C@H]1Oc1ccc(C#N)c2ncccc12 [Example 37, N-((1r,3r)-3-((8-Cyanoquinolin-5-yl)oxy)-2,2,4,4-tetramethylcyclobutyl)-4-(4-(((S)-3-(4-(2,4-dioxotetrahydropyrimidin-1(2H)-yl)-1H-indazol-1-yl)pyrrolidin-1-yl)methyl)piperidin-1-yl)-3-fluorobenzamide]
CC1(C)[C@H](NC(=O)c2cc(F)c(N3CCC(CN4CCC(n5ncc6c(N7CCC(=O)NC7=O)cccc65)CC4)CC3)c(F)c2)C(C)(C)[C@H]1Oc1ccc(C#N)c2ncccc12 [Example 30, N-((1r,3r)-3-((8-Cyanoquinolin-5-yl)oxy)-2,2,4,4-tetramethylcyclobutyl)-4-(4-((4-(4-(2,4-dioxotetrahydropyrimidin-1(2H)-yl)-1H-indazol-1-yl)piperidin-1-yl)methyl)piperidin-1-yl)-3,5-difluorobenzamide]
CC1(C)[C@H](NC(=O)c2ccc(N3CC[C@H](CN4CCC(n5ncc6c(N7CCC(=O)NC7=O)cccc65)CC4)C3)c(F)c2)C(C)(C)[C@H]1Oc1ccc(C#N)c2ncccc12 [Example 34, N-((1r,3R)-3-((8-Cyanoquinolin-5-yl)oxy)-2,2,4,4-tetramethylcyclobutyl)-4-((R)-3-((4-(4-(2,4-dioxotetrahydropyrimidin-1(2H)-yl)-1H-indazol-1-yl)piperidin-1-yl)methyl)pyrrolidin-1-yl)-3-fluorobenzamide]
CC1(C)[C@H](NC(=O)c2ccc(N3CCC(CN4CCC(n5ccc6c(N7CCC(=O)NC7=O)cccc65)CC4)CC3)c(F)c2)C(C)(C)[C@H]1Oc1ccc(C#N)c2ncccc12 [Example 31, N-((1r,3r)-3-((8-Cyanoquinolin-5-yl)oxy)-2,2,4,4-tetramethylcyclobutyl)-4-(4-((4-(4-(2,4-dioxotetrahydropyrimidin-1(2H)-yl)-1H-indol-1-yl)piperidin-1-yl)methyl)piperidin-1-yl)-3-fluorobenzamide]
CC1(C)[C@H](NC(=O)c2ccc(N3CCC(CN4CCC(n5ncc6c(N7CCC(=O)NC7=O)ccnc65)CC4)CC3)c(F)c2)C(C)(C)[C@H]1Oc1ccc(C#N)c2ncccc12 [Example 40, N-((1r,3r)-3-((8-Cyanoquinolin-5-yl)oxy)-2,2,4,4-tetramethylcyclobutyl)-4-(4-((4-(4-(2,4-dioxotetrahydropyrimidin-1(2H)-yl)-1H-pyrazolo[3,4-b]pyridin-1-yl)piperidin-1-yl)methyl)piperidin-1-yl)-3-fluorobenzamide]
CC1(C)[C@H](NC(=O)c2ccc(N3CCC(CN4CCC(n5ncc6c(N7CCC(=O)NC7=O)cc(Cl)cc65)CC4)CC3)c(F)c2)C(C)(C)[C@H]1Oc1ccc(C#N)c2ncccc12 [Example 41, 4-(4-((4-(6-Chloro-4-(2,4-dioxotetrahydropyrimidin-1(2H)-yl)-1H-indazol-1-yl)piperidin-1-yl)methyl)piperidin-1-yl)-/-((1r,3r)-3-((8-cyanoquinolin-5-yl)oxy)-2,2,4,4-tetramethylcyclobutyl)-3-fluorobenzamide]
CC1(C)[C@H](NC(=O)c2ccc(N3CCC(O)(CN4CCC(n5ncc6c(N7CCC(=O)NC7=O)cccc65)CC4)CC3)c(F)c2)C(C)(C)[C@H]1Oc1ccc(C#N)c2ncccc12 [Example 48, N-((1r,3r)-3-((8-Cyanoquinolin-5-yl)oxy)-2,2,4,4-tetramethylcyclobutyl)-4-(4-((4-(4-(2,4-dioxotetrahydropyrimidin-1(2H)-yl)-1H-indazol-1-yl)piperidin-1-yl)methyl)-4-hydroxypiperidin-1-yl)-3-fluorobenzamide]

From patent US12577231B2, “Androgen receptor PROTACS” (GlaxoSmithKline Intellectual Property Development Limited, priority 2023, dated 2026)
